US6603023B2 (priority 1996, dated 2003)
Like-named read-outs stand apart in the source and are kept apart here. Marks after values point to notes of the source that are not given here.

How the values were obtained:
[1] = test system: CCRF-CEM human T-cell acute lymphoblastic leukemia cell line; assay: XTT cytotoxicity (cell growth inhibition), CCRF-CEM
Description: The DC-3F hamster lung fibroblast cell line and its actinomycin D-selected sublines (DC-3F/ADII and DC-3F/ADX) were obtained from the Memorial Sloan-Kettering Cancer Center (MSKCC).
(§1) The drug-resistant cell lines were continuously cultured in the presence of the selecting agent, AD, DX, VBL or VM to maintain the drug resistant phenotypes. […] All cells were cultured in RPMI 1640-10% FBS at 37° C. 5% CO2 (see below).
(§2) The cells were cultured at an initial density of 5×10^4 cells/mL. They were maintained in a 5% CO2-humidified atmosphere at 37° C. in RPMI-1640 medium (GIBCO-BRL, Gaithersburg, Md.) containing penicillin (100 U/mL), streptomycin ([…]) (GIBCO-BRL) and 10% heat inactivate fetal bovine serum. Culture for cell suspension (such as for CCRF-CEM, P388 and sublines), were performed by the XTT-microculture tetrazonium method (Scudiero, D. A. et al., Cancer Res. 1988, 48, 4827-4833) in duplicate in 96-well microtiter plates.
(§3) 2′,3′-Bis(methoxy-4-nitro-5-sufophenyl)-5-[(phenylamino)carbonyl]2H-tetrazolium hyudroxide (XTT) was prepared at 1 mg/mL in prewarmed (37° C.) medium without serum. Phenazine methosulfate (PMS) and fresh XTT were mixed together to obtain 0.025 mM PMS-XTT solution (25 μL of the stock 5 mM PMS was added per 5 mL of 1 mg/mL XTT). Following a 72 h incubation, 50 μL of the assay aliquots were added to each well of the cell culture. After incubation at 37° C. for 4 h, absorbance at 450 nm and 630 nm was measured with a microplate reader (EL340, Bio-Tek Instruments, Inc., Winooski, Vt.).

[2] = test system: CCRF-CEM/VM1; assay: cells; assay type: cell-based, human; settings: Table 6; single determinations; read-out: IC50
Description: as §1, §2, §3

[3] = test system: CCRF-CEM/VBL100; assay: cells; assay type: cell-based, human; settings: read-out: IC50
Description: as §1, §2, §3

[4] = test system: human mammary carcinoma MX-1 xenograft; settings: MX-1; i.p.; comparison with Camptothecin, VBL, EpoB (order wraps over rows r7-r8)
Description: (§4) DMSO was used as a vehicle for epothilones. Each mouse received ≦40 μL DMSO in all experiments.
(§5) Athymic nude mice (nu/nu) were used for MX-1 and MCF-7/Adr human mammary carcinoma xenografts. Mice were obtained from Taconic Laboratory Animals and Service (Germantown, N.Y.: outbred, Swiss background).

[5] = test system: MDR human mammary adenocarcinoma MCF-7/Adr xenograft; assay: in vivo
Description: as §4, §5

[6] = Table 5, CCRF-CEM/VLB, single determinations
[7] = camptothecin 3 mg/kg i.p. Q2Dx5 from day 8, day 11
[8] = camptothecin 3 mg/kg i.p. Q2Dx5 from day 8, day 13
[9] = camptothecin 3 mg/kg i.p. Q2Dx5 from day 8, day 15
[10] = camptothecin 3 mg/kg i.p. Q2Dx5 from day 8, day 17
[11] = high doses: Taxol 12, Adriamycin 3, Camptothecin 3.0 mg/kg i.p. day 8,10,12,14,16

## C=CC[C@H](OC(=O)C[C@H](O)C(C)(C)C(=O)[C@H](C)[C@@H](O)[C@@H](C)CCCC(=C)C)/C(C)=C/c1csc(C)n1 [#13]
[1]; Table 6, single determinations
  IC50: 11500 nM
[1]; Table 7, CEM
  IC50: 11500 nM
[2]
  IC50: 14500 nM
[3]; Table 6, single determinations
  IC50: 5630 nM
[3]; Table 7, CEM/VBL
  IC50: 5630 nM

## C/C(=C\c1coc(C)n1)[C@@H]1C/C=C\CCC[C@H](C)[C@H](O)[C@@H](C)C(=O)C(C)(C)[C@@H](O)CC(=O)O1 [#20]
[1]
  IC50: 30 nM
[1]; Table 5, single determinations
  IC50: 30 nM
[1]; Table 7, CEM
  IC50: 30 nM
[3]; [6]
  IC50: 49 nM
[3]; Table 7, CEM/VBL
  IC50: 49 nM
[3]
  IC50: 49 nM

## CC(=Cc1csc(C)n1)C(O)CC=CCCCC(C)C(O)C(C)C(=O)C(C)(C)C(O)CC(=O)O (centres unmarked) [#12]
[1]; Table 6, single determinations
  IC50: 794 nM
[1]; Table 7, CEM
  IC50: 794 nM
[2]
  IC50: > 5000 nM
[3]; Table 6, single determinations
  IC50: > 5000 nM
[3]; Table 7, CEM/VBL
  IC50: > 5000 nM

## CCC[C@@]12CCC[C@H](C)[C@H](O)[C@@H](C)C(=O)C(C)(C)[C@@H](O)CC(=O)O[C@H](/C(C)=C/c3csc(C)n3)C[C@@H]1O2 [#24]
[1]
  IC50: 7.8 nM
[1]; Table 5, single determinations
  IC50: 7.8 nM
[1]; Table 7, CEM
  IC50: 7.8 nM
[3]; [6]
  IC50: 53 nM
[3]; Table 7, CEM/VBL
  IC50: 53 nM
[3]
  IC50: 53 nM

## C/C(=C\c1csc(C)n1)[C@@H]1C[C@H]2O[C@H]2CCCC[C@H](O)[C@@H](C)C(=O)C(C)(C)[C@@H](O)CC(=O)O1 [#16]
[1]; Table 6, single determinations
  IC50: 7470 nM
[1]; Table 7, CEM
  IC50: 7470 nM
[2]
  IC50: 976 nM
[3]; Table 6, single determinations
  IC50: 16500 nM
[3]; Table 7, CEM/VBL
  IC50: 16500 nM

## CC[C@@]1(O)C(=O)OCc2c1cc1n(c2=O)Cc2cc3ccccc3nc2-1 [Campothecin, camptothecin]
[4]
  Therapeutic effect Rank Order: dEpoB > Camptothecin >
[5]; CPT 3 mg/kg Q2Dx5 i.p.
  toxicity: moderate toxicity without lethality
[5]; MCF-7/Adr, i.p. (order wraps over rows r13-r14)
  Therapeutic effect Rank Order: dEpoB >> Camptothecin >
[5]; camptothecin 3 mg/kg i.p. Q2Dx5 from day 8
  Toxicity Death: 0/6
[5]; [7]
  Average Body Weight Change: -0.6 g
  Average Tumor Size (T/C): 0.95
[5]; [8]
  Average Body Weight Change: -0.4 g
  Average Tumor Size (T/C): 0.76
[5]; [9]
  Average Body Weight Change: -0.8 g
  Average Tumor Size (T/C): 0.61
[5]; [10]
  Average Body Weight Change: -0.9 g
  Average Tumor Size (T/C): 0.43*
[5]; camptothecin 3 mg/kg, day 17
  tumor size reduction: 57%
[5]; [11]
  Average Body Weight (change), Day 11: -0.6 g
  Average Body Weight (change), Day 13: -0.4 g
  Average Body Weight (change), Day 15: -0.8 g
  Average Body Weight Change, Day 17: -0.9 g
  Average Tumor Volume (T/C), Day 11: 0.95 T/C
  Average Tumor Volume (T/C), Day 13: 0.76 T/C
  Average Tumor Volume (T/C), Day 15: 0.61 T/C
  Average Tumor Volume (T/C), Day 17: 0.43 T/C
  Died: 0/6
[5]; initial weight, first treatment day, high doses: Taxol 12, Adriamycin 3, Camptothecin 3.0 mg/kg i.p. day 8,10,12,14,16
  Average Body Weight, Day 8: 24.5 g
